# Biological target: bovine cardiac myosin (Bos taurus, UniProt Q9BE39)
# Experiment: Myosin inhibition assay (PK/LDH-coupled ATPase, bovine cardiac myofibrils)
# Type: biochemical
# Details: calcium concentration giving 50% activation, pH 6.8, read-out: bcMF pCa_6 IC50
# Experimental: Small molecule agents were assessed for their ability to inhibit the enzymatic activity of bovine cardiac myosin using a biochemical assay that couples the release of ADP (adenosine diphosphate) from cardiac myosin to an enzymatic coupling system consisting of pyruvate kinase and lactate dehydrogenase (PK/LDH) and monitoring the absorbance decrease of NADH (at 340 nm) as a function of time. PK converts ADP to ATP (adenosine triphosphate) by converting PEP (phosphoenolpyruvate) to pyruvate. Pyruvate is then converted to lactate by LDH by converting NADH (nicotinamide adenine dinucleotide) to NAD (oxidized nicotinamide adenine dinucleotide). […] Prior to testing small molecule agents, the bovine myofibrils were assessed for their calcium responsiveness and the calcium concentration that achieves a 50% activation of the myofibril system was chosen as the final condition for assessing the inhibitory activity of the small molecule agents. All enzymatic activity was measured in a buffered solution containing 12 mM PIPES (piperazine-N,N′-bis(2-ethanesulfonic acid), 2 mM magnesium chloride at pH 6.8 (PM12 buffer). Final assay conditions were 1 mg/mL of bovine cardiac myofibrils, 0.4 mM PK/LDH, 50 uM ATP, 0.1 mg/mL BSA (bovine serum albumin), 10 ppm antifoam, 2 mM BME, 0.5 mM NADH, 1.5 mM PEP at the desired free calcium concentration required to achieve 50% activation of the myofibrils.
# A dilution series of compound was created in DMSO such that the final desired concentration of compound would be achieved in a volume of 30 μL with a fixed DMSO concentration of 3.3% (v/v). Typically 1 μL of the dilution series were added to 384 well plate to achieve an 10 point dose response. Following the addition of 14 μL of a solution containing bovine cardiac myofibrils, PK/LDH and a solution of calcium (that achieved 50% activation), the enzymatic reaction was started with the addition of 15 μL of a solution containing ATP, PEP and NADH. The reaction progress was followed in a PerkinElmer Envision plate reader at ambient temperature using clear bottom plates. The plate reader was configured to read absorbance at 340 nm in kinetics mode for 15 minutes. Data were recorded as the slope of the absorbance response to time. The slopes of the absorbance response as a function of time were normalized to slopes on the plate containing DMSO. This normalized rate was then plotted as a function of small molecule concentration and the data was fitted to a four-parameter fit using EXCEL XLfit. The IC50 is the concentration at which fifty percent of the total response is inhibited.
# Sequence of bovine cardiac myosin (Q9BE39 whole entry): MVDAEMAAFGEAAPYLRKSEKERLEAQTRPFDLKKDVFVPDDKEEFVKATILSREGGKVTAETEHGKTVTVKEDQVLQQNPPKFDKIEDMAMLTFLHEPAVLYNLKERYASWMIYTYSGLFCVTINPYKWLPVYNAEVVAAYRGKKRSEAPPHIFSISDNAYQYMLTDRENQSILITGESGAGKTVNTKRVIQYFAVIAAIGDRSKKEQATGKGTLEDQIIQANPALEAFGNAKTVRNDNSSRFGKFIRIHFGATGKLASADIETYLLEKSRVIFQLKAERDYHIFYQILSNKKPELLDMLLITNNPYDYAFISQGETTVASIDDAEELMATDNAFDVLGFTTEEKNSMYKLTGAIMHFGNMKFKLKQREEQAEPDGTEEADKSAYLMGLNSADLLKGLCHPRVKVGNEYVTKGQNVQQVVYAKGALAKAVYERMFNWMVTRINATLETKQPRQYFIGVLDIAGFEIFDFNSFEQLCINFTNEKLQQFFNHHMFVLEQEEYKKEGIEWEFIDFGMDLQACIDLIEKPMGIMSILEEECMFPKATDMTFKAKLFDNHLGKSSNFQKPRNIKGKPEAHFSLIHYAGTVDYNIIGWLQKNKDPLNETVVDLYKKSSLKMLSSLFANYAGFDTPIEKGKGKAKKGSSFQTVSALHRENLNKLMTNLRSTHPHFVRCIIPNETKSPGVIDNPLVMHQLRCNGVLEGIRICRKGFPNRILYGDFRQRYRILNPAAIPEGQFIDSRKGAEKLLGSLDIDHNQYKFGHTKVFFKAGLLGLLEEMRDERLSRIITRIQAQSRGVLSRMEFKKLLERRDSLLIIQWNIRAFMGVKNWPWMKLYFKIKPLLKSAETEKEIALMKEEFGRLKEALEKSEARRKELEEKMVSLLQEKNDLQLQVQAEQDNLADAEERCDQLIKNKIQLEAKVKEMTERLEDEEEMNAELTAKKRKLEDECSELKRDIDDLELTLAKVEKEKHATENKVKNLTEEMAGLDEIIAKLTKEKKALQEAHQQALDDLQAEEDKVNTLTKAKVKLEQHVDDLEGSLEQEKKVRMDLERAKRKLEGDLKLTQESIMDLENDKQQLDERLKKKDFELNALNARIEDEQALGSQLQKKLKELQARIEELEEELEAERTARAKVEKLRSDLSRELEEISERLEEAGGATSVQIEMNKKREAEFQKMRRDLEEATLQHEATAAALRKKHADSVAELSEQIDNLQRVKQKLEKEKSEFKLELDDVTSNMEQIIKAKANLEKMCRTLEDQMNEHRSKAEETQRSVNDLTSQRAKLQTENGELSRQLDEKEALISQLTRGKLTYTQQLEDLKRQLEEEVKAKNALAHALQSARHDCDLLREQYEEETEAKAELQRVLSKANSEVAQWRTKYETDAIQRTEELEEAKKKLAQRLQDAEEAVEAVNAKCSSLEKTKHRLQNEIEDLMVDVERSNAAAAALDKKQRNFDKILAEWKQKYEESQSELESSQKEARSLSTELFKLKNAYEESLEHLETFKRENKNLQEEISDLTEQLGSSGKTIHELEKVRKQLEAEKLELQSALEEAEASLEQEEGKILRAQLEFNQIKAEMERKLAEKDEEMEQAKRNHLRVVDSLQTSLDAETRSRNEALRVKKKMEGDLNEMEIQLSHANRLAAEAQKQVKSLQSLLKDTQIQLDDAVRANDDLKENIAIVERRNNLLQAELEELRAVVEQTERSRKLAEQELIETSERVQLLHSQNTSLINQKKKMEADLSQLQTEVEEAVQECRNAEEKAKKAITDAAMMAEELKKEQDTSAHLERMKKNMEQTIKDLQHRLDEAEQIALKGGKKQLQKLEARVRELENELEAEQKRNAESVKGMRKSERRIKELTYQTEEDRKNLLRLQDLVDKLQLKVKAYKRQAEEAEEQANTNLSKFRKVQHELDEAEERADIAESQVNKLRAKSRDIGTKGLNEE
# Sequence of bovine cardiac myosin (P85100 whole entry partner): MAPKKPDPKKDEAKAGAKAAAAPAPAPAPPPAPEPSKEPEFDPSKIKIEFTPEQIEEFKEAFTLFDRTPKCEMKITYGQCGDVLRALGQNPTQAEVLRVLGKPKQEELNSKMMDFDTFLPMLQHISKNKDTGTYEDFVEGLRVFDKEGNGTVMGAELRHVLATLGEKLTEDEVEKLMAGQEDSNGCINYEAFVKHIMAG
# Sequence of bovine cardiac myosin (Q3SZE5 whole entry partner): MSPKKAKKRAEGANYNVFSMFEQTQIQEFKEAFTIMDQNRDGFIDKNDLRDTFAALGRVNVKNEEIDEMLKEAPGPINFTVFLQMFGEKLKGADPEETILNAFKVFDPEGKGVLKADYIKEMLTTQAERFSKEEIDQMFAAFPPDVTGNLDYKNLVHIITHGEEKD
row,SMILES,IC50
1,O=c1[nH]c2c(c(=O)n1-c1cc(F)cc(F)c1)CC[C@H](C1CC(F)(F)C1)N2 [Compound 42],> 15 µM
2,CC(C)[C@H]1CCc2c([nH]c(=O)n(-c3cc(F)cc(F)c3)c2=O)N1 [Compound 44],> 15 µM
3,CC(C)n1c(=O)[nH]c2c(c1=O)CC[C@H](c1ccc(=O)[nH]c1)N2 [Compound 54],> 15 µM
4,CCn1c(=O)[nH]c2c(c1=O)CC[C@H](c1cccc(F)c1F)N2 [Compound 58],> 15 µM
5,CC(C)n1c(=O)[nH]c2c(c1=O)CC[C@H](CC1CCOCC1)N2 [Compound 62],> 15 µM
6,CCn1c(=O)[nH]c2c(c1=O)CC[C@H](c1ccccc1)N2 [Compound 64],> 15 µM
7,O=c1[nH]c2c(c(=O)n1-c1cc(F)cc(F)c1)C[C@H](c1ccccc1)N2 [Compound 71],> 15 µM
8,CCn1c(=O)[nH]c2c(c1=O)CC[C@H](c1c(F)cccc1F)N2 [Compound 75],> 15 µM
9,O=c1[nH]c2c(c(=O)n1-c1cc(F)cc(F)c1)C[C@@H](c1ccccc1)N2 [Compound 79],> 15 µM
10,CC(C)Cn1c(=O)[nH]c2c(c1=O)CC[C@H](c1ccc(F)c(F)c1)N2 [Compound 80],1 to 15 µM
11,O=c1[nH]c2c(c(=O)n1CC1CC1)CC[C@H](c1ccc(F)c(F)c1)N2 [Compound 82],1 to 15 µM
12,CCn1c(=O)[nH]c2c(c1=O)CC[C@H](c1ccc(F)c(F)c1)CN2 [Compound 84],> 15 µM
13,CC(C)n1c(=O)[nH]c2c(c1=O)CC[C@@H](c1ccc(F)c(F)c1)N2 [Compound 85],> 15 µM
14,O=c1[nH]c2c(c(=O)n1CC(F)(F)F)CC[C@@H](c1ccccc1)N2 [Compound 86],> 15 µM
15,CC(C)n1c(=O)[nH]c2c(c1=O)C[C@H](Cc1ccccc1)N2 [Compound 87],> 15 µM
16,CC(C)n1c(=O)[nH]c2c(c1=O)C[C@@H](Cc1ccccc1)N2 [Compound 88],> 15 µM
17,CC(C)n1c(=O)[nH]c2c(c1=O)CCC(c1ccccc1)N2 (stereo not shown) [Compound 89],1 to 15 µM
18,O=c1[nH]c2c(c(=O)n1C1CC1)CC[C@H](c1ccccc1)N2 [Compound 90],1 to 15 µM
19,CC(C)n1c(=O)[nH]c2c(c1=O)C[C@@H](C)[C@H](c1ccccc1)N2 [Compound 91],> 15 µM
20,CC(C)n1c(=O)[nH]c2c(c1=O)C[C@H](C)[C@H](c1ccccc1)N2 [Compound 92],> 15 µM

row,SMILES,IC50
1,COc1cccc([C@@H]2CCc3c([nH]c(=O)n(C(C)C)c3=O)N2)c1 [Compound 93],> 15 µM
2,CCn1c(=O)[nH]c2c(c1=O)CC[C@@H](c1ccc(F)c(F)c1)N2 [Compound 94],1 to 15 µM
3,"O=c1[nH]c2c(c(=O)n1-c1ccccc1)C(O)C[C@H](c1ccc(F)cc1)N2 (stereo partly drawn) [Compound 95, (7R)-7-(4-Fluorophenyl)-5-hydroxy-3-phenyl-5,6,7,8-tetrahydropyrido[2,3-d]pyrimidine-2,4(1H,3H)-dione]",> 15 µM
4,O=c1[nH]c2c(c(=O)n1C1CCC1)CC[C@H](c1ccc(F)c(F)c1)N2 [Compound 96],1 to 15 µM
5,CCCn1c(=O)[nH]c2c(c1=O)CC[C@H](c1ccc(F)c(F)c1)N2 [Compound 97],1 to 15 µM
6,CCn1c(=O)[nH]c2c(c1=O)CC[C@@H](c1ccc(F)c(F)c1)CN2 [Compound 98],> 15 µM
7,CCn1c(=O)[nH]c2c(c1=O)CCC[C@H](c1ccc(F)c(F)c1)N2 [Compound 99],> 15 µM
8,CCn1c(=O)[nH]c2c(c1=O)CCC[C@@H](c1ccc(F)c(F)c1)N2 [Compound 100],> 15 µM
9,"[2H]C1([2H])C[C@H](c2ccc(F)c(F)c2)Nc2[nH]c(=O)n(C(C)C)c(=O)c21 [Compound 101, (7R)-7-(3,4-Difluorophenyl)-3-isopropyl-5,6,7,8-tetrahydropyrido[2,3-d]pyrimidine-2,4(1H,3H)-dione-5,5-d2]",1 to 15 µM
10,Cc1cccc([C@@H]2CCc3c([nH]c(=O)n(C(C)C)c3=O)N2)c1 [Compound 103],> 15 µM
11,Cc1ccccc1[C@H]1CCc2c([nH]c(=O)n(C(C)C)c2=O)N1 [Compound 104],1 to 15 µM
12,Cc1ccccc1[C@@H]1CCc2c([nH]c(=O)n(C(C)C)c2=O)N1 [Compound 105],> 15 µM
13,CC(C)n1c(=O)[nH]c2c(c1=O)CC[C@@](C)(c1ccccc1)N2 [Compound 107],> 15 µM
14,O=c1[nH]c2c(c(=O)n1-c1ccccc1)CC[C@H](c1ccccc1F)N2 [Compound 108],1 to 15 µM
15,O=c1[nH]c2c(c(=O)n1-c1ccccc1)CC[C@@H](c1ccccc1F)N2 [Compound 109],> 15 µM
16,COC(=O)N1CCC(n2c(=O)[nH]c3c(c2=O)CC[C@H](c2ccccc2)N3)CC1 [Compound 110],1 to 15 µM
17,CC1(n2c(=O)[nH]c3c(c2=O)CC[C@@H](c2ccccc2F)N3)CC1 [Compound 113],> 15 µM
18,CC1(n2c(=O)[nH]c3c(c2=O)CC[C@H](c2ccccc2F)N3)CC1 [Compound 114],1 to 15 µM
19,"CC(C)n1c(=O)[nH]c2c(c1=O)CC(F)(F)[C@@H](c1ccccc1)N2 [Compound 117, (R)-6,6-Difluoro-3-isopropyl-7-phenyl-5,6,7,8-tetrahydropyrido[2,3-d]pyrimidine-2,4(1H,3H)-dione]",> 15 µM

# Second part, the molecule after the results:
row,IC50,SMILES
1,1 to 15 µM,O=c1[nH]c2c(c(=O)n1-c1cc(F)cc(F)c1)CC[C@H](C1CCCC1)N2 [Compound 40]
2,1 to 15 µM,CC(C)n1c(=O)[nH]c2c(c1=O)CC[C@H](C1CC(F)(F)C1)N2 [Compound 41]
3,< 1 µM,O=c1[nH]c2c(c(=O)n1-c1cccc(F)n1)CC[C@H](C1CCC(F)(F)CC1)N2 [Compound 43]
4,< 1 µM,O=c1[nH]c2c(c(=O)n1-c1ccccn1)CC[C@H](C1CCC(F)(F)CC1)N2 [Compound 45]
5,< 1 µM,O=c1[nH]c2c(c(=O)n1-c1ccccc1)CC[C@H](C1CCC(F)(F)CC1)N2 [Compound 47]
6,1 to 15 µM,O=c1[nH]c2c(c(=O)n1-c1ccccc1)CC[C@H](c1cccc(F)c1)N2 [Compound 49]
7,1 to 15 µM,CC(C)n1c(=O)[nH]c2c(c1=O)CC[C@H](CC1CC(F)(F)C1)N2 [Compound 50]
8,1 to 15 µM,O=c1[nH]c2c(c(=O)n1-c1cc(F)cc(F)c1)CC[C@H](CC1CC(F)(F)C1)N2 [Compound 51]
9,1 to 15 µM,O=c1[nH]c2c(c(=O)n1-c1cc(F)cc(F)c1)CC[C@H](C1CCC(O)CC1)N2 (stereo partly shown) [Compound 52]
10,1 to 15 µM,C/C=C(\C)n1c(=O)[nH]c2c(c1=O)CC[C@H](c1ccccc1)N2 [Compound 55]
11,1 to 15 µM,CC1(n2c(=O)[nH]c3c(c2=O)CC[C@H](c2ccccc2)N3)CC1 [Compound 56]
12,1 to 15 µM,CCn1c(=O)[nH]c2c(c1=O)CC[C@H](c1ccccc1Cl)N2 [Compound 57]
13,1 to 15 µM,COc1ccc([C@H]2CCc3c([nH]c(=O)n(C(C)C)c3=O)N2)cn1 [Compound 59]
14,1 to 15 µM,O=c1[nH]c2c(c(=O)n1-c1cc(F)cc(F)c1)CC[C@H](c1cccc(F)c1)N2 [Compound 60]
15,1 to 15 µM,CCn1c(=O)[nH]c2c(c1=O)CC[C@H](c1cccc(F)c1)N2 [Compound 61]
16,1 to 15 µM,O=c1[nH]c2c(c(=O)n1CC(F)(F)F)CC[C@H](c1ccccc1)N2 [Compound 63]
17,1 to 15 µM,O=c1[nH]c2c(c(=O)n1-c1cc(F)cc(F)c1)CC[C@H](c1ccccc1)N2 [Compound 65]
18,< 1 µM,CC(C)n1c(=O)[nH]c2c(c1=O)CC[C@H](Cc1ccccc1)N2 [Compound 66]
19,1 to 15 µM,CC(C)n1c(=O)[nH]c2c(c1=O)CC[C@H](c1c(F)cccc1F)N2 [Compound 72]
20,1 to 15 µM,O=c1[nH]c2c(c(=O)n1CC(F)F)CC[C@H](c1ccc(F)cc1)N2 [Compound 73]
21,1 to 15 µM,CCn1c(=O)[nH]c2c(c1=O)CC[C@H](c1cc(F)ccc1F)N2 [Compound 74]
22,1 to 15 µM,CC(C)n1c(=O)[nH]c2c(c1=O)CC[C@H](c1cccc(F)c1F)N2 [Compound 76]
23,1 to 15 µM,CC(C)n1c(=O)[nH]c2c(c1=O)CC[C@H](c1cc(F)cc(F)c1)N2 [Compound 77]
24,< 1 µM,CC[C@@H](C)n1c(=O)[nH]c2c(c1=O)CC[C@H](C1CCC(F)(F)CC1)N2 [Compound 78]
25,< 1 µM,Cc1cccc([C@H]2CCc3c([nH]c(=O)n(C(C)C)c3=O)N2)c1 [Compound 102]
26,< 1 µM,CC(C)n1c(=O)[nH]c2c(c1=O)CC[C@](C)(c1ccc(F)c(F)c1)N2 [Compound 111]
27,< 1 µM,CC(C)n1c(=O)[nH]c2c(c1=O)CC[C@@](c1ccccc1)(C(F)F)N2 [Compound 112]
28,< 1 µM,CC(C)n1c(=O)[nH]c2c(c1=O)CC[C@](C)(c1cc(F)ccc1F)N2 [Compound 115]

# Source: patent US9663516B2, “Bicyclic-pyrimidinedione compounds” (MyoKardia, Inc., priority 2014, dated 2017)
